Reference: patent publication EP0335902B1, “MONOMERIC PHTHALOCYANINE REAGENTS” (BRITISH TECHNOLOGY GROUP USA INC., priority 1986, dated 1988)
Where two headings read alike, the source gives them in different places.

Tests used:
[1] = tested on: antimorphine monoclonal antibody; experiment: competition experiment with antimorphine monoclonal antibody and tritium-labeled morphine (relative immunoaffinity); assay type: binding
Procedure: The relative immunoaffinity of morphine, the amino morphine analog, and the amino-morphine derivative of mono-PABA-sulfonyl aluminum phthalocyanine disulfonate was determined in a competition experiment with antimorphine monoclonal antibody and tritium-labeled morphine.

[2] = solubility of aluminum phthalocyanines in water and solvents; settings: for solubility in polar, protic solvents such as methanol: effect of axial ligand L
Text: The following "R" substituents (R₁ and/or R₂) bound to the phthalocyanine macrocycle 1 can serve as suitable water-solubilizing moieties: sulfonic acid groups (-SO₃H), sulfonate groups (-SO₃⁻, X⁺), carboxylic acid groups (-CO₂H), carboxylate groups (-CO₂⁻, X⁺), phosphoric acid groups (-PO₄H₂), phosphate groups (-PO₄⁻⁻, 2X⁺), phosphonate groups (-PO₃H or -PO₃⁻, X⁺), hydroxy or phenoxy groups (-OH), amino groups (-NH₂), and ammonium and pyridinium groups (-NR₄⁺, X⁻).
To enhance water solubility, L should be -OZ or -NZ₂ wherein Z is selected from among hydrogen, alkyl, acyl, and silyl groups, the latter three preferably being charged.

[3] = fluorescence and UV-VIS spectroscopy of phthalocyanine derivatives; assay type: physicochemical
Text: As a family of chromophores the metallophthalocyanines are characterized by a very narrow and strong absorption in the red envelope centered around 670 nm (Eo=230,000) and a broad and less intense absorption (Eo=60,000) at around 350 nm.
It is contemplated that other metal atoms (M) with +3 valences or higher may take on an axial ligand(s) in the phthalocyanine macrocycle, thereby conferring a similar resistance to aggregation in aqueous solution. For use as fluorescent species, the metal should be diamagnetic and have a lower atomic weight than that of […], so as to avoid a heavy-atom quenching effect; suitable metal atoms for the latter purpose include aluminum, silicon, phosphorus, gallium, germanium, and tin. […] Both processes give rise to radiationless deactivation of the excited state and serve to decrease the fluorescent quantum yield.
The ultimate sensitivity of a fluorogenic enzyme assay is determined by the spectral properties of the generated fluorophore.

[4] = λmax 678.5 nm, in chloronaphthalene; cited from earlier work
[5] = assay type: physicochemical
Procedure: The phthalocyanines are thermally stable, and are often purified by sublimation at temperatures greater than 400°C. Chemically, the phthalocyanines are resistant to acidic or basic hydrolysis, oxidation, and reduction.

3-(4-aminobutyl)morphine [amino morphine]
Relative Affinity ([1]; relative affinity of antimorphine monoclonal antibody for competitor versus tritium-labeled morphine): 1

[OH][Al]1[n]2c3c4ccccc4c2N=C2N=C(N=c4c5ccccc5c([n]41)=NC1=NC(=N3)c3ccccc31)c1ccccc12 [aluminum phthalocyanine, reference compound]
solubility in water ([2]; water): poorly soluble in water | Stokes shift [3]: 330 nm

[Cl][Al]1[n]2c3c4ccccc4c2/N=C2N=C(/N=c4/c5ccccc5/c([n]41)=N/C1=NC(=N\3)/c3ccccc31)c1ccccc1\2 [chloraluminum phthalocyanine]
solubility in polar, protic solvents such as methanol [2]: but not chloraluminum phthalocyanine is soluble in polar, protic solvents

c1ccc2c(c1)C1=NC2=Nc2c3ccccc3c3[n]2[Cu][n]2c(c4ccccc4c2=NC2=NC(=N3)c3ccccc32)=N1 [compound 9, Copper phthalocyanine]
molar absorptivity ε [4]: 218,500

[OH][Al]1[n]2c3c4ccccc4c2N=C2N=C(N=c4c5ccccc5c([n]41)=NC1=NC(=N3)c3ccccc31)c1ccccc12 [hydroxyaluminum phthalocyanine]
solubility in polar, protic solvents such as methanol [2]: soluble in polar, protic solvents such as methanol

CN1CC[C@]23c4c5ccc(O)c4O[C@H]2[C@@H](O)C=C[C@H]3[C@H]1C5 [morphine, reference compound]
Relative Affinity [1]: 1

aluminum phthalocyanine trisulfonate
solubility in water [2]: high water solubility | photochemical stability [5]: photochemically inert | Stokes shift [3]: 335 nm | fluorescence emission lifetime [3]: 5 ns | polarization coefficient [3]: 0.005 | quantum yield when aggregated ([3]; aggregated): < 0.02 | quantum yield when aggregated, of its original value ([3]; aggregated): less than 4% | emission wavelength ([3]; excitation at 350 nm): 680 nm

copper(II)phthalocyanine trisulfonate [reference compound]
fluorescence quantum yield relative to aluminum(III)phthalocyanine trisulfonate ([3]; comparative example): more than 200 times less
